Laboratory results reported in ChEMBL document CHEMBL4699579, “A Peptidyl Inhibitor that Blocks Calcineurin-NFAT Interaction and Prevents Acute Lung Injury” (J Med Chem, 2020).
Active and inactive are the calls of the source. No cut-off for these calls is given here.

Assays:
Mus musculus [1] = experiment: Anti-inflammatory activity in BALB/c mouse model of LPS-induced ALI assessed as reduction in number of neutrophils BALF at 5 mg/kg dosed via intranasal insuffIation pre-treated 2 hrs before LPS stimulation for 16 hrs; assay type: functional, organism-based; conditions: dose mg/kg 5-10, time 18.0 hrs
Mus musculus [2] = experiment: Anti-inflammatory activity in BALB/c mouse model of LPS-induced ALI assessed as reduction in number of neutrophils BALF at 10 mg/kg dosed via intranasal insuffIation pre-treated 2 hrs before LPS stimulation for 16 hrs; assay type: functional, organism-based; conditions: time 18.0 hrs
[3] = Drug localization in total leukocytes of C57BL/6 mouse assessed as TMR-positive total leukocytes at 5 mg/kg using TMR-labeled compound instilled into both nostrils measured after 24 hrs by flow cytometry; assay type: ADME, organism-based, Leucocyte; conditions: in vivo, inhaled_or_intranasal
Mus musculus [4] = experiment: Anti-inflammatory activity in BALB/c mouse model of LPS-induced ALI assessed as reduction in LPS-induced TNFalpha in plasma at 10 mg/kg dosed via intranasal insuffIation pre-treated 2 hrs before LPS stimulation for 16 hrs; assay type: functional, organism-based; conditions: time 18.0 hrs
[5] = Stability in 25% human serum assessed as compound degradation at 5 uM at 37 degC incubated for 24 hrs by HPLC analysis; assay type: ADME, cell-free; conditions: 25% human serum, read-out: Drug degradation
Macrophage [6] = experiment: Inhibition of calcineurin-NFATc3 interaction in mouse bone marrow-derived macrophages assessed as reduction in LPS-induced NFATc3 nuclear translocation at 1 uM pre-incubated before LPS stimulation for 1 hr using biotinylated compound by immunofluorescence staining assay
[7] = Drug localization in plasma of C57BL/6 mouse at 5 mg/kg using TMR-labeled compound instilled into both nostrils measured after 24 hrs by flow cytometry; assay type: ADME, organism-based; conditions: in vivo, inhaled_or_intranasal
Mus musculus [8] = experiment: Anti-inflammatory activity in BALB/c mouse model of LPS-induced ALI assessed as reduction in LPS-induced IL6 in BALF at 10 mg/kg dosed via intranasal insuffIation pre-treated 2 hrs before LPS stimulation for 16 hrs; assay type: functional, organism-based; conditions: time 18.0 hrs
Mus musculus [9] = experiment: Anti-inflammatory activity in BALB/c mouse model of LPS-induced ALI assessed as reduction in LPS-induced TNFalpha in plasma at 5 mg/kg dosed via intranasal insuffIation pre-treated 2 hrs before LPS stimulation for 16 hrs; assay type: functional, organism-based; conditions: dose mg/kg 5-10, time 18.0 hrs
Mus musculus [10] = experiment: Anti-inflammatory activity in BALB/c mouse model of LPS-induced ALI assessed as reduction in lung wet-to-dry ratios at 5 mg/kg dosed via intranasal insuffIation pre-treated 2 hrs before LPS stimulation for 16 hrs; assay type: functional, organism-based; conditions: dose mg/kg 5-10, time 18.0 hrs
HeLa = experiment: Toxicity in human HeLa cells assessed as reduction in cell viability up to 25 uM incubated for 72 hrs by MTT assay; assay type: cell-based
[11] = Drug localization in total leukocytes of C57BL/6 mouse assessed as TMR-positive total leukocytes at 5 mg/kg using TMR-labeled compound instilled into both nostrils measured after 4 hrs by flow cytometry; assay type: ADME, organism-based, Leucocyte; conditions: in vivo, inhaled_or_intranasal
Mus musculus [12] = experiment: Anti-inflammatory activity in BALB/c mouse model of LPS-induced ALI assessed as reduction in LPS-induced extravasated BALF protein in BALF at 10 mg/kg dosed via intranasal insuffIation pre-treated 2 hrs before LPS stimulation for 16 hrs; assay type: functional, organism-based; conditions: time 18.0 hrs
NCI-H441 = experiment: Toxicity in human NCI-H441 cells assessed as reduction in cell viability up to 25 uM incubated for 72 hrs by MTT assay; assay type: cell-based; conditions: nci-h441, 72 h
[13] = Toxicity in of C57BL/6 mouse assessed as induction of neutrophil infiltration at 5 mg/kg using TMR-labeled compound instilled into both nostrils measured after 24 hrs by Hema-3.0 staining based assay; assay type: organism-based; conditions: in vivo, inhaled_or_intranasal
[14] = Drug uptake in human HeLa cells at 5 uM incubated for 2 hrs using naphthofluorescein-labelled compound by live-cell confocal microscopic analysis; assay type: ADME, cell-based
[15] = Toxicity in C57BL/6 mouse assessed as effect on self grooming at 50 mg/kg, ip; assay type: organism-based; conditions: in vivo
Homo sapiens = species on record: Homo sapiens; experiment: (§1) Binding affinity to GST-tagged Calcineurin (unknown origin) assessed as reduction in binding of peptide-14 incubated for 1 hr by fluorescence polarization assay
[16] = as §1; set-up: species or system Homo sapiens
[17] = Toxicity in C57BL/6 mouse assessed as induction of body weight loss at 50 mg/kg, ip measured during 1 weeks; assay type: organism-based; conditions: in vivo, 168 h
[18] = Toxicity in C57BL/6 mouse assessed as effect on respiratory function measured by pulmonary arterial oxygen saturation at 50 mg/kg, ip; assay type: organism-based; conditions: in vivo
[19] = Toxicity in C57BL/6 mouse assessed as effect on body temperature at 50 mg/kg, ip; assay type: organism-based; conditions: in vivo
[20] = Toxicity in C57BL/6 mouse assessed as effect on animal growth rates at 10 mg/kg dosed via intranasal insuffIation measured during 1 weeks; assay type: organism-based; conditions: in vivo, inhaled_or_intranasal, 168 h
Mus musculus [21] = experiment: Anti-inflammatory activity in BALB/c mouse model of LPS-induced ALI assessed as reduction in LPS-induced IL6 in plasma at 5 mg/kg dosed via intranasal insuffIation pre-treated 2 hrs before LPS stimulation for 16 hrs; assay type: functional, organism-based; conditions: dose mg/kg 5-10, time 18.0 hrs
[22] = Solubility in PBS containing 5% DMSO at pH 7.4 incubated for 1 hr; assay type: physicochemical
Mus musculus [23] = experiment: Anti-inflammatory activity in BALB/c mouse model of LPS-induced ALI assessed as reduction in LPS-induced IL6 in BALF at 5 mg/kg dosed via intranasal insuffIation pre-treated 2 hrs before LPS stimulation for 16 hrs; assay type: functional, organism-based; conditions: dose mg/kg 5-10, time 18.0 hrs
[24] = Binding affinity to GST-tagged Calcineurin (unknown origin) incubated for 1 hr by fluorescence polarization assay; set-up: species or system Homo sapiens
[25] = Tmax in BALF of C57BL/6 mouse at 5 mg/kg using TMR-labeled compound instilled into both nostrils by flow cytometry; assay type: ADME, organism-based, Bronchoalveolar lavage; conditions: inhaled or intranasal
Macrophage [26] = experiment: Inhibition of calcineurin-NFATc3 interaction in mouse lung macrophages assessed as reduction in LPS-induced IL6 production at 0.1 to 10 uM pre-incubated 4 hrs before LPS stimulation for 8 hrs by ELISA; assay type: tissue-based; conditions: dose microM 0.1-10, time 12.0 hrs
[27] = Toxicity in of C57BL/6 mouse assessed as effect on lactate dehydrogenase level in total lung cells at 5 mg/kg using TMR-labeled compound instilled into both nostrils measured after 24 hrs by Cyto-tox 96 assay; assay type: organism-based; conditions: in vivo, inhaled_or_intranasal
[28] = Toxicity in C57BL/6 mouse assessed as effect on physical appearance at 50 mg/kg, ip; assay type: organism-based; conditions: in vivo
Mus musculus [29] = experiment: Anti-inflammatory activity in BALB/c mouse model of LPS-induced ALI assessed as reduction in lung wet-to-dry ratios at 10 mg/kg dosed via intranasal insuffIation pre-treated 2 hrs before LPS stimulation for 16 hrs; assay type: functional, organism-based; conditions: time 18.0 hrs
[30] = Toxicity in C57BL/6 mouse assessed as efect on animal growth rates at 50 mg/kg, ip measured during 1 weeks; assay type: organism-based; conditions: in vivo, 168 h
[31] = Toxicity in mouse lung macrophages cells assessed as reduction in cell viability up to 25 uM incubated for 72 hrs by MTT assay; assay type: tissue-based; conditions: macrophage
Mus musculus [32] = experiment: Anti-inflammatory activity in BALB/c mouse model of LPS-induced ALI assessed as reduction in LPS-induced TNFalpha in BALF at 10 mg/kg dosed via intranasal insuffIation pre-treated 2 hrs before LPS stimulation for 16 hrs; assay type: functional, organism-based; conditions: time 18.0 hrs
Macrophage [33] = experiment: Inhibition of calcineurin-NFATc3 interaction in mouse lung macrophages assessed as reduction in LPS-induced TNFalpha production at 0.1 to 10 uM pre-incubated 4 hrs before LPS stimulation for 8 hrs by ELISA; assay type: tissue-based; conditions: dose microM 0.1-10, time 12.0 hrs
Mus musculus [34] = experiment: Anti-inflammatory activity in BALB/c mouse model of LPS-induced ALI assessed as reduction in LPS-induced extravasated BALF protein in BALF at 5 mg/kg dosed via intranasal insuffIation pre-treated 2 hrs before LPS stimulation for 16 hrs; assay type: functional, organism-based; conditions: dose mg/kg 5-10, time 18.0 hrs
Mus musculus [35] = experiment: Anti-inflammatory activity in BALB/c mouse model of LPS-induced ALI assessed as reduction in LPS-induced TNFalpha in BALF at 5 mg/kg dosed via intranasal insuffIation pre-treated 2 hrs before LPS stimulation for 16 hrs; assay type: functional, organism-based; conditions: dose mg/kg 5-10, time 18.0 hrs
[36] = Toxicity in C57BL/6 mouse assessed as induction of body weight loss at 10 mg/kg dosed via intranasal insuffIation measured during 1 weeks; assay type: organism-based; conditions: in vivo, inhaled_or_intranasal, 168 h

For `CC[C@H](C)[C@H](NC(=O)[C@@H](NC(=O)c1cccc(Cl)c1Cl)C(C)(C)C)C(=O)N[C@H](C(=O)N[C@H](C(=O)N[C@H](C(=O)N[C@@H](CCC(N)=O)C(=O)N[C@@H](Cc1cnc[nH]1)C(=O)N[C@@H](CC(C)C)C(=O)N[C@@H](CO)C(=O)NCCC(=O)N[C@@H](CCCCNC(=O)CC[C@@H]1NC(=O)[C@@H](CCCNC(=N)N)NC(=O)[C@H](CCCNC(=N)N)NC(=O)[C@@H](CCCNC(=N)N)NC(=O)[C@H](CCCNC(=N)N)NC(=O)[C@H](Cc2ccc3ccccc3c2)NC(=O)[C@@H](Cc2ccccc2)NC1=O)C(N)=O)[C@H](C)O)[C@@H](C)CC)C(C)(C)C`, the Activity (Mus musculus [1]) was “inactive”, the Activity (Mus musculus [2]) was “Active” and the Drug uptake [3] was “Not Active”. For the same molecule, the Activity (Mus musculus [4]) was “Active”, the metabolised at 24 h, 5 µM [5] was < 10% and the inhibition (Macrophage [6]) was “Active”. The Drug uptake [7] was “Not Active”, the Activity (Mus musculus [8]) was “Active” and the Activity (Mus musculus [9]) was “inactive”. For the same molecule, the Activity (Mus musculus [10]) was “inactive”, the Activity (HeLa) was “Non-Toxic” and the Drug uptake [11] was 80%. For the same molecule, the Activity (Mus musculus [12]) was “Active”, the Activity (NCI-H441) was “Non-Toxic” and the Activity [13] was “Non-Toxic”. The Drug uptake [14] was “Active”, the Activity [15] was “Non-Toxic” and the inhibition (Homo sapiens) was “Dose-dependent effect”. The IC50 [16] was 630 nM, the Activity [17] was “Non-Toxic” and the Activity [18] was “Non-Toxic”. For the same molecule, the Activity [19] was “Non-Toxic”, the Activity [20] was “Non-Toxic” and the Activity (Mus musculus [21]) was “inactive”. The solubility kinetic at 1 h [22] was ≥ 100 µM, the Activity (Mus musculus [23]) was “inactive” and the Kd [24] was 75 nM. For the same molecule, the Tmax [25] was 2 h, the inhibition (Macrophage [26]; DISRUPTING AGENT) was “Dose-dependent effect” and the inhibition (Macrophage [26]) was 22%. The Activity [27] was “Non-Toxic”, the Activity [28] was “Non-Toxic” and the Activity (Mus musculus [29]) was “Active”. For the same molecule, the Activity [30] was “Non-Toxic”, the Activity [31] was “Non-Toxic” and the Activity (Mus musculus [32]) was “Active”. For the same molecule, the inhibition (Macrophage [33]; DISRUPTING AGENT) was “Dose-dependent effect”, the inhibition (Macrophage [33]) was 17% and the Activity (Mus musculus [34]) was “inactive”. The Activity (Mus musculus [35]) was “inactive” and the Activity [36] was “Non-Toxic”.
